Where two headings read alike, the source gives them in different places.

Common to all, as to assay type: cell-based
Assay [1] concerns V. harveyi. The assay is described as follows: Planktonic growth in Low Binding Plates, OD 600 nm. Conditions: for V. harveyi planktonic bacteria reduction: 100 μM; for Effect on V. harveyi planktonic growth: in words. Here is the method: (§1) Planktonic growth was determined in “Low Binding Plates” in which the bacteria form minimal amounts of biofilm The quantity is determined by optical density measurements at 600 nm.

Assay [2] relates to V. harveyi. The assay is described as follows: Biofilm formation on peggs, Calgary method. To be noted: for Effect on V. harveyi biofilm: in words. Here is the method: (§2) Biofilm formation was measured in static cultures in wells of microtiter plates for S. epidermidis, or on “peggs” according to the Calgary method (The Calgary biofilm devices: New technology for rapid determination of antibiotic susceptibilities of bacterial biofilms. Ceri et al. J Clin Microbiol 1999:37:1771-1776) for V. harveyi. In both cases the safranin staining method was applied and optical density was measured at 530 nm for quantification of biofilm mass.

In assay [3] the test system is S. epidermidis. The assay is described as follows: Planktonic growth in Low Binding Plates, OD 600 nm. Here is the method: as §1
The test system of assay [4] is S. epidermidis. Kind of assay: Biofilm formation in static cultures in wells of microtiter plates. The method, then: as §2
Assay [5] concerns S. epidermidis. The assay is described as follows: Static biofilm model on coated glass vials. To be noted: incubation time 5 h, coating on glass vial. Here is the method: The materials of Example 3 were tested in a static biofilm model as follows.
Triplicate samples of a coating composition were applied to a glass vial in accordance with Table 2 set out below where each vial is given a number. Vials 1 to 12 are each loaded with 13 mg of the indicated material, followed by the addition of 1.0 mL dichloromethane. The dichloromethane was slowly evaporated under atmospheric pressure to leave a coating on the internal walls of the receptacles. Vials 13 to 18 were each loaded by adding 10 mg of the indicated material pre-dissolved in 10 mL dichloromethane. These vials were heated in an oven at 125° C. for 24 hours. To remove any residues of the dichloromethane solvent, all vials were dried at high vacuum (0.5 mmHg) for 2 hours at room temperature.
The biofilm was assessed as described in Example 2.
It is possible in the example of the copolymer of C and D that bacteria are killed in addition to the inhibition of biofilm formation. Similar results were obtained in a static biofilm model where S. epidermis bacteria were incubated over a time period of 5 hours.

Assay [6] relates to S. epidermidis. Kind of assay: Static biofilm model, safranine staining. Conditions: 6 h incubation, thiophenone 200 μmol/L coating. The method, then:
(§3) According to the static biofilm model, a given thiophenone 200 μmol/L was dissolved in 500 μl absolute ethanol and applied to wells of a standard 24 well microtiter plate. The ethanol was evaporated from the wells in a laminar air sterile work bench at room temperature so as to leave a coating of the thiophenone in the well. A sample of bacteria was then added to the well and incubated for a given period of time. After incubation, the percentage of bacteria remaining was assessed by safranine staining of the biofilm. Bound safranine was released by acetic acid and optical density was measured in Synergy HT Multi-Detection Microplate Reader and compared to a control.

The test system of assay [7] is S. epidermidis. The assay is described as follows: Shaking biofilm model (200 rpm), safranine staining. Conditions: Staphylococcus epidermidis, read-out: Shaking biofilm model % Remaining. The method, then: as §3
According to the shaking biofilm model, the microtiter plates were shaken (200 rpm) in a Minitron Incubator Shaker during biofilm formation.

Setting [8] is: S. epidermidis, 20 h incubation.

Turning to `O=C(O)CCC(=O)OCC1=C/C(=C/Br)SC1=O`, the “V. harveyi planktonic bacteria reduction” value in assay [1] is listed as 18%. In addition, the “V. harveyi biofilm reduction” value in assay [2] (5 μM) came out at 17%; in assay [2] (50 μM), 70%; in assay [2] (100 μM), 85%.
In the case of `O=C1C=C/C(=C/I)S1`, the “S. epidermis planktonic bacterial growth reduction” value was determined as 50% in assay [3] (50 μM) and 63% in assay [3] (100 μM). For the same compound, the “V. harveyi biofilm reduction” value in assay [2] (5 μM) is 46%; in assay [2] (10 μM) it was 80%; in assay [2] (15 μM) it was 95%. The “S. epidermis biofilm reduction” value in assay [4] (50 μM) came out at 50%; in assay [4] (100 μM) it was 64%.
As to `N#CS/C=C1/C=CC(=O)S1`, the “S. epidermis planktonic growth reduction” value in assay [3] (concentrations from 25 μM) was found to be 70%. Moreover, in assay [1] (25 μM), the “V. harveyi planktonic reduction” value is recorded as 50%. Moreover, in assay [2] (25 μM), the “V. harveyi biofilm reduction” value is given as 90%.
Consider `CCN(/C=C1/C=CC(=O)S1)CC`, for which the “Effect on V. harveyi planktonic growth” value in assay [1] was “No effect”. In addition, the “Effect on V. harveyi biofilm” value in assay [2] is recorded as “No effect”.
Turning to `O=C1C=C/C(=C/Oc2ccc([N+](=O)[O-])cc2)S1`, the “Effect on S. epidermis planktonic growth” value in assay [3] (in words) was “No effect”. In addition, the “Effect on S. epidermis biofilm” value in assay [4] (in words) is on record as “No effect”.
As to `COc1ccc(C2CSC(=O)C2)s1` (stereo not drawn), in assay [1], the “Effect on V. harveyi planktonic growth” value is on record as “No effect”. In assay [2], the “Effect on V. harveyi biofilm” value is listed as “No effect”.
As for `O=C1S/C(=C\Br)C=C1c1cccs1` [(Z)-5-(bromomethylene)-3-(thiophen-2-yl)thiophen-2(5H)-one], the “V. harveyi planktonic bacteria reduction” value in assay [1] is given as 30%.
With `CCO[Si](CCCNC(=O)OCc1ccccc1)(OCC)OCC` [Benzyl 3-(triethoxysilyl)propylcarbamate, reference compound], the “Static biofilm model % Remaining” value in assay [5] is 100%.
Take `COc1ccc(CC2(CO)C=CC(=O)S2)s1` (stereo not drawn) [Thi401, 5-(hydroxymethyl)-5-((5-methoxythiophen-2-yl)methyl)thiophen-2(5H)-one]: the “Static biofilm model % Remaining” value in assay [6] came to 51%. The activity at 200 µM in assay [7] (S. epidermidis, 6 h incubation) came to 80%; in assay [7] (setting [8]), 94%.
In the same order, the values of `O=C1C=C/C(=C\Br)S1` [Thio102, (E)-5-(bromomethylene) thiophen-2(5H)-one] are 95%, 91% and 103%.
Regarding `O=C1C=C/C(=C/Cl)S1` [Thio103, (Z)-5-(chloromethylene) thiophen-2(5H)-one], the “Static biofilm model % Remaining” value in assay [6] stood at 32%. The figures for the activity at 200 µM in assay [7] (6 h) and in assay [7] (20 h) were 92% and 96%, respectively.
In the same order, the values of `CC(=O)O/C=C1/C=CC(=O)S1` [Thio104, (Z)-(5-oxothiophen-2(5H)-ylidene)methyl acetate] are 34%, 106% and 103%.
Turning to `O=C1S/C(=C\Br)C=C1Br` [Thio105, (Z)-3-bromo-5-(bromomethylene)thiophen-2(5H)-one], the activity at 200 µM in assay [7] (S. epidermidis, 6 h incubation) stood at 20%; in assay [7] (setting [8]), 18%.
In the same order, the values of `O=C1C=CC(=C(Br)Br)S1` [Thio106, 5-(dibromomethylene)thiophen-2(5H)-one] are 11% and 27%.
In the same order, the values of `O=C1C=C/C(=C/C(Br)Br)S1` [Thio107, (Z)-5-(2,2-dibromoethylidene) thiophen-2(5H)-one] are 77% and 93%.
In the same order, the values of `O=C1SC(=C(Br)Br)C=C1Br` [Thio108, 3-bromo-5-(dibromomethylene)thiophen-2(5H)-one] are 1% and 9%.
Take `O=C1C=C/C(=C/c2ccccc2)S1` [Thio109, (Z)-5-benzylidenethiophen-2(5H)-one]: the activity at 200 µM stood at 98% in assay [7] (S. epidermidis, 6 h incubation) and 107% in assay [7] (setting [8]).
In the same order, the values of `O=C1S/C(=C\c2ccccc2)C=C1Br` [Thio110, (Z)-5-benzylidene-3-bromothiophen-2(5H)-one] are 30% and 27%.
For `O=C1C=C/C(=C(\Br)c2ccccc2)S1` [Thio111, (E)-5-(bromo(phenyl)methylene) thiophen-2-(5H)-one] the same measures were 63% and 50%.
For `O=C1C=C/C(=C(/Br)c2ccccc2)S1` [Thio112, (Z)-5-(bromo(phenyl)methylene) thiophen-2(5H)-one] the same measures were 63% and 59%.
Turning to `COc1ccc(C=O)s1` [Thio201, 5-methoxythiophene-2-carbaldehyde], the “Static biofilm model % Remaining” value in assay [6] is recorded as 56%. For the same compound, the activity at 200 µM was 81% in assay [7] (S. epidermidis, 6 h incubation) and 101% in assay [7] (setting [8]).
`COc1ccc(C=C(Br)Br)s1` [Thio202, 2-(2,2-dibromovinyl)-5-methoxythiophene]: the activity at 200 µM came to 94% in assay [7] (S. epidermidis, 6 h incubation) and 103% in assay [7] (setting [8]).
For `O=C1C=C/C(=C/c2cccs2)S1` [Thio301, (Z)-5-(thiophen-2-ylmethylene) thiophen-2(5H)-one], the activity at 200 µM in assay [7] (S. epidermidis, 6 h incubation) worked out at 80%; in assay [7] (setting [8]), 98%.
In the same order, the values of `O=C1C=C/C(=C/c2ccc(Br)s2)S1` [Thio302, (Z)-5-((5-bromothiophen-2-yl)methylene)thiophen-2(5H)-one] are 98% and 101%.
For `O=Cc1ccc(/C=C2/C=CC(=O)S2)s1` [Thio303, (Z)-5-((5-oxothiophen-2(5H)-ylidene)methyl)thiophene-2-carbaldehyde] the same measures were 95% and 91%.
In the same order, the values of `COc1ccc(/C=C2/C=CC(=O)S2)s1` [Thio304, (Z)-5-((5-methoxythiophen-2-yl)methylene)thiophen-2(5H)-one] are 72% and 94%.
For `COc1sc(/C=C2/C=CC(=O)S2)c(Br)c1Br` [Thio305, (Z)-5-((3,4-dibromo-5-methoxythiophen-2-yl)methylene)thiophen-2(5H)-one], the activity at 200 µM was determined as 66% in assay [7] (S. epidermidis, 6 h incubation) and 101% in assay [7] (setting [8]).
On to `O=C1C=C/C(=C/c2ccc(-c3cccs3)s2)S1` [Thio306, (Z)-5-(2,2′-bithiophen-5-ylmethylene) thiophen-2(5H)-one], for which, in assay [6], the “Static biofilm model % Remaining” value is listed as 67%.

The record behind these values is US20110250254A1, “ANTIMICROBIAL COMPOSITIONS AND USES” (priority 2008, published 2011).
